T1: GST-DEC (Dopey1 extreme C-terminal region) (Homo sapiens, UniProt B2RWN9)
T1 construct: DEC domain, residues 2146-2456, N-terminal GST fusion kept, E. coli BL21 DE3, detergent-free; dimeric through GST
T1 sequence (B2RWN9 2146-2456): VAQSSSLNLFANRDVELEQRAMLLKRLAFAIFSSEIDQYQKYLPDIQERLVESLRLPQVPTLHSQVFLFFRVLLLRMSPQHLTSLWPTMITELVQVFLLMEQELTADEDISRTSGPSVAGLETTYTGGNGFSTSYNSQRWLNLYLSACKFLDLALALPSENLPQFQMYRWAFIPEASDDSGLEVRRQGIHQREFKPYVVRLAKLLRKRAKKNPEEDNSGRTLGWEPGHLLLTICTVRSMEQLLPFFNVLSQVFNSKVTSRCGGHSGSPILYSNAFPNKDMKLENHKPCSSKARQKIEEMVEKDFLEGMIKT


Tests used:
[1] = target: T1, GST-DEC (Dopey1 extreme C-terminal region); assay: liposome pull-down with diluted protein, Western blot; type: binding; settings: read-out: apparent affinity
[2] = target: the molecule itself; assay: single-molecule photo-bleaching steps (TIRF microscopy); GFP-fusion protein in HEK293T lysate (20 mM Tris pH 7.4) immobilised on a glass coverslip; photo-bleaching steps counted; expressed alone

| Molecule | Kd [1] | stoichiometry N [2] |
| --- | --- | --- |
| PI4P | ~1000 nM |  |
| Mon2, full length, transfected (natural protein, UniProt Q7Z3U7 1-1717, looked up, Mon2, full length; One molecule for the differently tagged copies (GFP-Mon2 and DMyc-Mon2 in the self co-IP); GFP-Mon2 in photo-bleaching; DMyc-Mon2 co-expressed with GFP-Dopey1; also called GFP-Mon2; DMyc-Mon2; source: HEK293T, transfected, in lysate; HeLa, transfected (imaging); not shown: GFP or DMyc or another fluorescence protein (by experiment), N-terminal, kept) MSGTSSPEAVKKLLENMQSDLRALSLECKKKFPPVKEAAESGIIKVKTIAARNTEILAALKENSSEVVQPFLMGCGTKEPKITQLCLAAIQRLMSHEVVSETAAGNIINMLWQLMENSLEELKLLQTVLVLLTTNTVVHDEALSKAIVLCFRLHFTKDNITNNTAAATVRQVVTVVFERMVAEDERHRDIIEQPVLVQGNSNRRSVSTLKPCAKDAYMLFQDLCQLVNADAPYWLVGMTEMTRTFGLELLESVLNDFPQVFLQHQEFSFLLKERVCPLVIKLFSPNIKFRQGSSTSSSPAPVEKPYFPICMRLLRVVSVLIKQFYSLLVTECEIFLSLLVKFLDADKPQWLRAVAVESIHRFCVQPQLLRSFCQSYDMKQHSTKVFRDIVNALGSFIQSLFLVPPTGNPATSNQAGNNNLGGSVSAPANSGMVGIGGGVTLLPAFEYRGTWIPILTITVQGSAKATYLEMLDKVEPPTIPEGYAMSVAFHCLLDLVRGITSMIEGELGELETECQTTTEEGSSPTQSTEQQDLQSTSDQMDKEIVSRAVWEEMVNACWCGLLAALSLLLDASTDEAATENILKAELTMAALCGRLGLVTSRDAFITAICKGSLPPHYALTVLNTTTAATLSNKSYSVQGQSVMMISPSSESHQQVVAVGQPLAVQPQGTVMLTSKNIQCMRTLLNLAHCHGAVLGTSWQLVLATLQHLVWILGLKPSSGGALKPGRAVEGPSTVLTTAVMTDLPVISNILSRLFESSQYLDDVSLHHLINALCSLSLEAMDMAYGNNKEPSLFAVAKLLETGLVNMHRIEILWRPLTGHLLEVCQHPNSRMREWGAEALTSLIKAGLTFNHDPPLSQNQRLQLLLLNPLKEMSNINHPDIRLKQLECVLQILQSQGDSLGPGWPLVLGVMGAIRNDQGESLIRTAFQCLQLVVTDFLPTMPCTCLQIVVDVAGSFGLHNQELNISLTSIGLLWNISDYFFQRGETIEKELNKEEAAQQKQAEEKGVVLNRPFHPAPPFDCLWLCLYAKLGELCVDPRPAVRKSAGQTLFSTIGAHGTLLQHSTWHTVIWKVLFHLLDRVRESSTTADKEKIESGGGNILIHHSRDTAEKQWAETWVLTLAGVARIFNTRRYLLQPLGDFSRAWDVLLDHIQSAALSKNNEVSLAALKSFQEILQIVSPVRDSDKPETPPVVNVPVPVLIGPISGMSRPFVRTDSIGEKLGRYSSSEPPIVTDELEDLNLWWAAWNTWYRIGSESTKPPITFDKLTFIPSQPFLTALIQIFPALYQHIKTGFNMDDLQKLGVILHSAISVPISSDASPFILPSYTEAVLTSLQEAVLTALDVLQKAICVGPENMQIMYPAIFDQLLAFVEFSCKPPQYGQLETKHIANAKYNQIQLFAPAEWVALNYVPFAERSLEVVVDLYQKTACHKAVVNEKVLQNIIKTLRVPLSLKYSCPSESTWKLAVSSLLRVLSIGLPVARQHASSGKFDSMWPELANTFEDFLFTKSIPPDNLSIQEFQRNENIDVEVVQLISNEILPYANFIPKEFVGQIMTMLNKGSIHSQSSSFTEAEIDIRLREEFSKMCFETLLQFSFSNKVTTPQEGYISRMALSVLLKRSQDVLHRYIEDERLSGKCPLPRQQVTEIIFVLKAVSTLIDSLKKTQPENVDGNTWAQVIALYPTLVECITCSSSEVCSALKEALVPFKDFMQPPASRVQNGES |  | 2 |

— publication PMC6642134, “Dopey1-Mon2 complex binds to dual-lipids and recruits kinesin-1 for membrane trafficking” (Nature Communications, 2019)
